Where no end group is shown, it is not given here.
Legend:
[1] = test system: Escherichia coli (NBRC14237); format: cell-based; conditions: for Antimicrobial activity against Escherichia coli (in words): segments with Na^4vSS less than − 30, Supplementary Fig. S1; for MIC, E. coli (NBRC 14237): NBRC14237
Experimental: (§1) Antimicrobial activities of the peptides were measured as described previously. Synthetic peptides were added to the microbial suspension in the individual wells of a microplate at final concentrations of 3.125, 6.25, 12.5, and 25 μM. The relative activities (RA) were calculated by the equation RA = ((APC − ANC) − ASA)/(APC − ANC), where APC, ANC, and ASA represent the absorbance of positive control, negative control, and samples, respectively. The bacteria and yeast strains used were Escherichia coli (NBRC14237), Staphylococcus aureus (NBRC12732), Pseudomonas aeruginosa (NBRC12582), and Saccharomyces cerevisiae (NBRC10217), which were purchased from Biological Resource Center, National Institute of Technology and Evaluation (NBRC, Tokyo, Japan). The interaction between Ciona LCAMPs and membrane interface was predicted using AmphipaSeek server (https://npsa-pbil.ibcp.fr/cgi-bin/npsa_automat.pl?page=/NPSA/npsa_amphipaseek.html)[28].

[2] = cited from earlier work
Experimental: We examined the effects of five novel Ciona LCAMPs in the presence of NaCl on antimicrobial activity against E. coli. Reflective of the habitat of C. intestinalis, salt resistance was found in all peptides at the concentration of 12.5 μM (Fig. 2).

[3] = test system: Saccharomyces cerevisiae (NBRC10217); format: cell-based
Experimental: as §1

[4] = test system: Pseudomonas aeruginosa (NBRC12582); format: cell-based
Experimental: as §1

[5] = test system: Staphylococcus aureus (NBRC12732); format: cell-based
Experimental: as §1

bacteria = conditions: in vitro development-resistance studies; cited from earlier work
Description: Antimicrobial peptides are crucial and widespread effector molecules of the innate immune system and are a part of the first line of host defense against invading pathogens[1],[2]. To date, thousands of antimicrobial peptides have been identified from bacteria to mammals and have been classified into several groups on basis of the structure and sequence features[3]–[5]. Of these, linear cationic α-helical antimicrobial peptides (LCAMPs), the genes of which encode short amphipathic peptides without cysteine residues, are the most abundant and widespread in organisms. LCAMPs are known for their ...

Substance | Antimicrobial activity against Escherichia coli (in words) [1] | MIC, S. cerevisiae (NBRC 10217) [3] [µM] | MIC, S. aureus (NBRC 12732) [5] [µM] | MIC, E. coli (NBRC 14237) [1] [µM] | further results
AERLMRKAAKDHWSNKMAKDVIWWEQ [KH.S930.2, cationic amphipathic α-helical segment with Na4vSS less than − 30, synthetic peptide] | no or weak antimicrobial activities | – | – | – | –
ALRSAVRTVARVGRAVLPHVAI [Ci-PAP-A, known salt-resistant LCAMP from C. intestinalis hemocyte EST database] | – | – | – | – | NaCl concentration in the presence of which antimicrobial activity is exhibited [2]: 100 mM
FGRRRRVPGRRRRWWNERAMNEI [KH.S1007.2, cationic amphipathic α-helical segment with Na4vSS less than − 30, synthetic peptide] | no or weak antimicrobial activities | – | – | – | –
FRRRRRRRRHWHHHHHYHYHHHRRRRRRRRRW [KH.L63.9, cationic amphipathic α-helical segment with Na4vSS less than − 30, synthetic peptide] | no or weak antimicrobial activities | – | – | – | –
KGGKFLNFLKKAAKVGAKVGMAALG [KH.S908.1] | – | 6.25 | < 3.125 | < 3.125 | MIC, P. aeruginosa (NBRC 12582) [4]: 6.25 µM
KLKTWPKNYWRKVWSKKNWRKFVKKFKHW [KH.S921.1] | – | – | < 3.125 | < 3.125 | MIC, P. aeruginosa (NBRC 12582) [4]: < 3.125 µM
RRRRRIAARIGSGVAQTGGELI [KH.C1.365, cationic amphipathic α-helical segment with Na4vSS less than − 30, synthetic peptide] | no or weak antimicrobial activities | – | – | – | –
SRRRFDFSRRRIYVARRRSLAFAHRRR [KH.C7.94] | – | 6.25 | 6.25 | 6.25 | –
TINKKFRWHGKRKWWLRFVKQ [KH.S1531.4] | – | 6.25 | < 3.125 | < 3.125 | –
WRSLGRTLLRLSHALKPLARRSGW [Ci-MAM-A, known salt-resistant LCAMP from C. intestinalis hemocyte EST database] | – | – | – | – | NaCl concentration in the presence of which antimicrobial activity is exhibited [2]: 450 mM
WWLSRRRSSLFYWR [KH.C1.640] | – | 12.5 | < 3.125 | < 3.125 | –
pexiganan | – | – | – | – | Potential for induction of bacterial resistance (bacteria): low potential for induction of bacterial resistance

— article PMC7387483, “In silico identification and functional validation of linear cationic α-helical antimicrobial peptides in the ascidian Ciona intestinalis” (Scientific Reports, 2020)
